Assay results reported in ChEMBL document CHEMBL3430912, “GSK Tres Cantos Anti-Kinetoplastid Screening (TCAKS) Data”.

Columns and labels:
Trypanosoma cruzi [1] = test: GSK_TCAKS: pIC50 Trypanosoma cruzi viability assay using beta-GAL activity. This assay was run at single shot at 5uM compound concentration per well. The biological reagents consisted of NIH-3T3 host cells and trypomastigotes parasitic cells; both cell types were set to a 3.3 * 10^5 cells/mL dilution in assay DMEM by means of a CASY cell counter device using a 60um capillary. 6 uL of the mixture were dispensed per well (about 1 * 10^3 host-cells and 1 * 10^3 parasites) with a Multidrop Combi dispenser. […] In all wells, the percentage of DMSO never exceeded 0.5%. Plates incubated for four days at 37C, 5% CO2. The substrate used for the assay fluorescence intensity (FLINT) readout was resorufin-beta-D-galactopiranoside (Sigma-Aldrich) at 5uM per well. It was diluted in PBS supplemented with the soft detergent Igepal (Fluka).; type: functional, organism-based, Mus musculus; conditions: Tulahuen, NIH3T3
Trypanosoma cruzi [2] = test: (§1) GSK_TCAKS: pIC50 Trypanosoma cruzi Imaging: Infected Cells. […] Cells were then washed once with PBS before infection. T. cruzi trypomastigotes, collected at days 5 to 8 after infection from LLC-MK2 parasite infected cultures, were allowed to swim out for 4h at 37C from a centrifuged pellet (2,500 rpm/10 min/room temperature). Trypomastigotes were then collected and counted in a CASY Cell Counter. Trypomastigotes, in supplemented DMEM, were added to H9c2 cultures in a multiplicity of infection of 1 and incubated for 18 h. Cells were washed once with PBS before incubation of the infected H9c2 monolayer with trypsin (Life-Technologies) to detach cells from the flask. Cells were counted in a CASY Cell Counter using a 150 um capillary and their density set at 5 * 10^4 cells per mL in supplemented assay DMEM. Infected H9c2 were dispensed into 384-well poly-lysine coated assay plates at 50uL per well using a Multidrop Combi dispenser. After seeding them, the plates were incubated at 37C, 5% CO2 for 72h. Cultures were then fixed and stained by addition of 50 uL of a solution containing 8% formaldehyde and 4 uM DRAQ5 DNA dye (BioStatus, UK) per well. […] Five images were collected per well for reliable statistical analysis. Automated image analysis was performed with a script developed on Acapella High Content Imaging and Analysis Software (PerkinElmer). Output: percentage of infected cells per well as a second infection marker.; type: functional, organism-based, Rattus norvegicus; conditions: H9c2, 4 h
Trypanosoma cruzi [3] = test: GSK_TCAKS: pIC50 Trypanosoma cruzi Imaging: Amastigotes/Cell. […] Cells were then washed once with PBS before infection. T. cruzi trypomastigotes, collected at days 5 to 8 after infection from LLC-MK2 parasite infected cultures, were allowed to swim out for 4h at 37C from a centrifuged pellet (2,500 rpm/10 min/room temperature). Trypomastigotes were then collected and counted in a CASY Cell Counter. Trypomastigotes, in supplemented DMEM, were added to H9c2 cultures in a multiplicity of infection of 1 and incubated for 18 h. Cells were washed once with PBS before incubation of the infected H9c2 monolayer with trypsin (Life-Technologies) to detach cells from the flask. Cells were counted in a CASY Cell Counter using a 150 um capillary and their density set at 5 * 10^4 cells per mL in supplemented assay DMEM. Infected H9c2 were dispensed into 384-well poly-lysine coated assay plates at 50uL per well using a Multidrop Combi dispenser. After seeding them, the plates were incubated at 37C, 5% CO2 for 72h. Cultures were then fixed and stained by addition of 50 uL of a solution containing 8% formaldehyde and 4 uM DRAQ5 DNA dye (BioStatus, UK) per well. […] Five images were collected per well for reliable statistical analysis. Automated image analysis was performed with a script developed on Acapella High Content Imaging and Analysis Software (PerkinElmer). Output: number of amastigotes per cell as infection level measurement.; type: functional, organism-based, Rattus norvegicus; conditions: H9c2, 4 h
Trypanosoma cruzi [4] = test: as §1, with “H2C9” for “Trypanosoma cruzi”, “H9c2 Host Cardiomyocytes.” for “Infected Cells.”, “Number” for “percentage”, “H9c2 Host Cardiomyocytes nuclei to determine drug-related cytotoxicity.” for “infected cells per well as a second infection marker.”; type: functional, organism-based, Rattus norvegicus; conditions: H9c2, 4 h
Leishmania donovani [5] = test: GSK_TCAKS: pIC50 Leishmania donovani viability assay using fluorescence intensity. Assay plates (1536-well) were prepared by adding 30nL per well of compound. For single shot assay, the final compound concentration was 5uM. […] Briefly, eGFP LdBOB axenic amastigotes were harvested, fixed and counted in a CASY cell counter (Roche-Applied Science). A final concentration of 1.5 * 10^5 cells per well were prepared in amastigote media containing 500 U/mL penicillin/streptomycin (Invitrogen) and 6uL was dispensed to each experimental well using a Multidrop Combi dispenser (Thermo Scientific). 6uL of assay media was dispensed to control columns used as reference for 100% compound response. Following incubation for 72 h at 37C, 5% CO2, 2 uL of resazurin was added to each well at a final concentration of 0.5 mM in phosphate buffered saline (PBS) with IGEPAL (Sigma-Aldrich), 0.05% (v/v).; type: functional, organism-based
Leishmania donovani [6] = test: (§2) GSK_TCAKS: pIC50 Leishmania donovani Imaging: Infected Macrophages. Assay plates (384-well) were prepared by adding 250nL of compound to each well. For single shot assay, the final compound concentration was 5 uM. […] Automated image analysis was performed with a script developed on Acapella High Content Imaging and Analysis Software (PerkinElmer). Output: Percent of infected macrophage cells were reported for each well.; type: functional, organism-based, Homo sapiens; conditions: THP-1
Leishmania donovani [7] = test: as §2, with “Amastigotes/Macrophages.” for “Infected Macrophages.”, “Average number” for “Percent”, “amastigotes per” for “infected”, “cell” for “cells”; type: functional, organism-based, Homo sapiens; conditions: THP-1
Leishmania donovani [8] = test: as §2, with “THP-1 Host” for “Infected”, “THP-1 cell count” for “Percent of infected macrophage cells”; type: functional, organism-based, Homo sapiens
[9] = tested on: Trypanosoma brucei brucei; test: GSK_TCAKS: pIC50 Trypanosoma brucei viability assay using fluorescence intensity. Assay plates (1536-well) were prepared by dispensing 25nL of compound solution per well using an Echo acoustic dispenser (Labcyte).; type: functional, organism-based; conditions: Lister 427, 2 h
[10] = tested on: Trypanosoma brucei brucei; test: GSK_TCAKS: pIC50 Trypanosoma brucei viability assay using luminiscence. Assay plates (1536-well) were prepared. T. brucei cultures were harvested and counted in a CASY cell counter. A parasite suspension was prepared at a final concentration of 5 * 10^4 cells/mL in complete HMI9 medium and 6uL was dispensed to all wells containing compounds using a Multidrop Combi dispenser. 6uL of HMI9 media with 0.4% DMSO were dispensed to control columns. Plates were incubated for 24 h at 37C, 5% CO2 then tempered for 10 min at room temperature. ATP content was quantified by adding 4 uL of CellTiter-Glo Reagent (Promega) according to the manufacturer's instructions. Luminescence was measured using a ViewLux.; type: functional, organism-based; conditions: Lister 427, CASY
[11] = GSK_TCAKS: pIC50 HepG2 human cell line viability assay using luminiscence. […] Seeding density was checked to ensure that new mono-layers were not more than 50% confluent at the time of harvesting. Cell suspension was added to 500 mL of the same medium at a final density of 1.2 * 10^5 cells/mL. This cell suspension was dispensed (25 uL, 3000 cells per well) into 384-well clear-bottom plates using a Multidrop Combi dispenser. Prior to addition of the cell suspension, the screening compounds (250 nL) were pre-dispensed into the plates with an Echo liquid handler. Plates were incubated for 48 h at 37C, 5% CO2. After incubation, plates equilibrated at room temperature for 30 min before proceeding to develop the luminescent signal. The signal developer, CellTiter-Glo Reagent, was allowed to equilibrate at room temperature for 30 min and added to the plates (25uL per well) using a Multidrop Combi dispenser. Plates were left for 10 min at room temperature for stabilization and then read using a ViewLux.; type: toxicity, cell-based
[12] = target: Sterol 14-alpha demethylase (Trypanosoma cruzi (strain CL Brener), UniProt Q7Z1V1); test: GSK_TCAKS: pIC50 CYP51 from Trypanosoma cruzi.; type: functional
Sequence of Sterol 14-alpha demethylase (Q7Z1V1 whole entry): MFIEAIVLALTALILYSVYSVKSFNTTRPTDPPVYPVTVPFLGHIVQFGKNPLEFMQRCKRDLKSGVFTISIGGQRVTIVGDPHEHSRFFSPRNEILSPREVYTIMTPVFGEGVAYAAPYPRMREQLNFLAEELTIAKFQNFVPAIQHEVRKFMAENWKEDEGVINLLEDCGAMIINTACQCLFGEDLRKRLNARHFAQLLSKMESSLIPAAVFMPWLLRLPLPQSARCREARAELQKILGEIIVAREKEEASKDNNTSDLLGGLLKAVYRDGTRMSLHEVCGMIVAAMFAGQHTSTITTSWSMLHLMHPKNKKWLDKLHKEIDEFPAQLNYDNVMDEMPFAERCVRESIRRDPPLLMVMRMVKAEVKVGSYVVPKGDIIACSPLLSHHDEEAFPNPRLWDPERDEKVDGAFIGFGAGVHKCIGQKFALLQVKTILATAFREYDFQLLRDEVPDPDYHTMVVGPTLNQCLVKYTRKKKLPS

SMILES: Cc1nn2c(O)c3c(nc2c1-c1ccc(F)cc1)CCCC3
- IC50 (Trypanosoma cruzi [1]): 1.58 µM
- IC50 (Trypanosoma cruzi [2]): 2 µM
- IC50 (Trypanosoma cruzi [3]): 0.794 µM
- IC50 (Trypanosoma cruzi [4]): > 50.1 µM
- IC50 (Leishmania donovani [5]): 1.26 µM
- IC50 (Leishmania donovani [6]): > 50.1 µM
- IC50 (Leishmania donovani [7]): > 50.1 µM
- IC50 (Leishmania donovani [8]): > 50.1 µM
- IC50 [9]: 0.398 µM
- IC50 [10]: 0.631 µM
- IC50 at 48 h [11]: > 100 µM
- IC50 [12]: > 100 µM

SMILES: CC(C)CC(=O)NC(c1cccs1)c1ccc2cccnc2c1O (stereo unspecified)
- IC50 (Trypanosoma cruzi [1]): 1.58 µM
- IC50 (Trypanosoma cruzi [2]): 1.26 µM
- IC50 (Trypanosoma cruzi [3]): 0.794 µM
- IC50 (Trypanosoma cruzi [4]): 2 µM
- IC50 (Leishmania donovani [5]): 6.31 µM
- IC50 (Leishmania donovani [6]): 7.94 µM
- IC50 (Leishmania donovani [7]): 3.16 µM
- IC50 (Leishmania donovani [8]): 1.58 µM
- IC50 [9]: 0.631 µM
- IC50 [10]: 0.631 µM
- IC50 at 48 h [11]: > 100 µM
- IC50 [12]: 50.1 µM

SMILES: c1ccc(Nc2nc3ccccc3[nH]2)nc1
- IC50 (Trypanosoma cruzi [1]): 7.94 µM
- IC50 (Trypanosoma cruzi [2]): 25.1 µM
- IC50 (Trypanosoma cruzi [3]): 10 µM
- IC50 (Trypanosoma cruzi [4]): 10 µM
- IC50 (Leishmania donovani [5]): 25.1 µM
- IC50 (Leishmania donovani [6]): 7.94 µM
- IC50 (Leishmania donovani [7]): 7.94 µM
- IC50 (Leishmania donovani [8]): 25.1 µM
- IC50 [9]: 15.8 µM
- IC50 [10]: 25.1 µM
- IC50 at 48 h [11]: 79.4 µM
- IC50 [12]: > 100 µM

SMILES: CN(CC1CCCO1)S(=O)(=O)c1ccc(C(=O)Nc2nc(-c3ccccn3)cs2)cc1 (stereo unspecified)
- IC50 (Trypanosoma cruzi [1]): 1.58 µM
- IC50 (Trypanosoma cruzi [2]): 2 µM
- IC50 (Trypanosoma cruzi [3]): 1.26 µM
- IC50 (Trypanosoma cruzi [4]): 20 µM
- IC50 (Leishmania donovani [5]): 1.26 µM
- IC50 (Leishmania donovani [6]): 6.31 µM
- IC50 (Leishmania donovani [7]): 3.16 µM
- IC50 (Leishmania donovani [8]): 7.94 µM
- IC50 [9]: 0.501 µM
- IC50 [10]: 0.631 µM
- IC50 at 48 h [11]: 63.1 µM
- IC50 [12]: 7.94 µM

SMILES: Cc1cccc(Nc2nc(-c3ccccn3)cs2)n1
- IC50 (Trypanosoma cruzi [1]): 0.631 µM
- IC50 (Trypanosoma cruzi [2]): 1 µM
- IC50 (Trypanosoma cruzi [3]): 0.794 µM
- IC50 (Trypanosoma cruzi [4]): 0.631 µM
- IC50 (Leishmania donovani [5]): 3.98 µM
- IC50 (Leishmania donovani [6]): 3.16 µM
- IC50 (Leishmania donovani [7]): 2 µM
- IC50 (Leishmania donovani [8]): > 50.1 µM
- IC50 [9]: 1 µM
- IC50 [10]: 0.501 µM
- IC50 at 48 h [11]: 39.8 µM
- IC50 [12]: 20 µM

SMILES: COc1ccc(Nc2nc(-c3ccccn3)cs2)c(OC)c1
- IC50 (Trypanosoma cruzi [1]): 3.98 µM
- IC50 (Trypanosoma cruzi [2]): 7.94 µM
- IC50 (Trypanosoma cruzi [3]): 5.01 µM
- IC50 (Trypanosoma cruzi [4]): 2 µM
- IC50 (Leishmania donovani [5]): 6.31 µM
- IC50 (Leishmania donovani [6]): 2.51 µM
- IC50 (Leishmania donovani [7]): 2 µM
- IC50 (Leishmania donovani [8]): > 50.1 µM
- IC50 [9]: 20 µM
- IC50 [10]: 25.1 µM
- IC50 at 48 h [11]: > 100 µM
- IC50 [12]: 20 µM

SMILES: COc1ccc(-c2csc(NC(=O)c3ccc([N+](=O)[O-])s3)n2)cc1OC
- IC50 (Trypanosoma cruzi [1]): 0.1 µM
- IC50 (Trypanosoma cruzi [2]): 0.1 µM
- IC50 (Trypanosoma cruzi [3]): 0.0794 µM
- IC50 (Trypanosoma cruzi [4]): 6.31 µM
- IC50 (Leishmania donovani [5]): 1 µM
- IC50 (Leishmania donovani [6]): 1.26 µM
- IC50 (Leishmania donovani [7]): 1.26 µM
- IC50 (Leishmania donovani [8]): 31.6 µM
- IC50 [9]: 0.126 µM
- IC50 [10]: 0.631 µM
- IC50 at 48 h [11]: 10 µM
- IC50 [12]: > 100 µM

SMILES: O=C(CN1CCN(S(=O)(=O)c2cccc([N+](=O)[O-])c2)CC1)Nc1ccc(Oc2ccccc2)cc1
- IC50 (Trypanosoma cruzi [1]): 2.51 µM
- IC50 (Trypanosoma cruzi [2]): 2.51 µM
- IC50 (Trypanosoma cruzi [3]): 1.26 µM
- IC50 (Trypanosoma cruzi [4]): > 50.1 µM
- IC50 (Leishmania donovani [5]): 3.98 µM
- IC50 (Leishmania donovani [6]): 7.94 µM
- IC50 (Leishmania donovani [7]): 2 µM
- IC50 (Leishmania donovani [8]): > 50.1 µM
- IC50 [9]: 20 µM
- IC50 [10]: 15.8 µM
- IC50 at 48 h [11]: > 100 µM
- IC50 [12]: 2.51 µM
